{
  "source": "patent US8217079B2",
  "about": "(priority 2010, dated 2012)",
  "origin": "cited, not measured here",
  "test_system": "PVR-1 gene expression",
  "conditions": "sub-micromolar concentrations; peripheral blood of JAK2^V617F PV patients; cited from earlier work",
  "data": [
    {"smiles": "CCN(CC)Cc1ccc2cc(COC(=O)Nc3ccc(C(=O)NO)cc3)ccc2c1.Cl", "note": "[ITF2357, Diethyl-[6-(4-hydroxycarbamoyl-phenylcarbamoyloxymethyl)-naphthalen-2-ylmethyl]-ammonium chloride]", "values": [
      {"measurement": "PVR-1 gene expression in granulocytes", "result": "down-modulate"}
    ]}
  ]
}
